Assay results taken from patent publication US9278958B2, “Anti-cancer compounds” (KATHOLIEKE UNIVERSITEIT LEUVEN, priority 2012, dated 2016).
Like-named read-outs stand apart in the source and are kept apart here.

Key:
CEM cells = assay: Cytostatic assay, CEM; assay type: cell-based; details: for Ratio (tumor cell selectivity): ratio IC50 HeLa / IC50 CEM
Protocol: (§1) To each well of a 96-well microtiter plate were added 5-7.5×10^4 cells and a given amount of the test compound. The cells were allowed to proliferate for 48 h to 96 h (depending on the nature of the cell line) at 37° C. in a humidified CO2-controlled atmosphere. At the end of the incubation period, the cells were counted in a Coulter Counter (Coulter Electronics Ltd, Harpenden Herts, United Kingdom).

[1] = test system: HeLa cervix carcinoma cells; assay: Cytostatic assay, HeLa; assay type: cell-based, human
Protocol: as §1

[2] = Homo sapiens, CCRF-CEM, CEM cells, Table 7, 5-arylthiomethyl-substituted 2-amino-3-carboxymethylthiophenes, read-out: IC50 (μM) CEM
[3] = Homo sapiens, CCRF-CEM, Table 1b, read-out: IC50 (μM) (CEM)
[4] = Homo sapiens, HeLa cells, Table 7, 5-arylthiomethyl-substituted 2-amino-3-carboxymethylthiophenes, read-out: IC50 (μM) HeLa
[5] = Homo sapiens, Table 1b, read-out: IC50 (μM) (HeLa)
[6] = Table 1b, read-out: IC50 (μM) (CEM)
[7] = Table 1b, read-out: IC50 (μM) (HeLa)
[8] = Homo sapiens, CCRF-CEM, CEM cells, Table 6, 5-alkyl-substituted 2-aminothiophenes, read-out: IC50 (μM) CEM
[9] = Homo sapiens, HeLa cells, Table 6, 5-alkyl-substituted 2-aminothiophenes, read-out: IC50 (μM) HeLa
[10] = CEM cells, Table 7, 5-arylthiomethyl-substituted 2-amino-3-carboxymethylthiophenes, read-out: IC50 (μM) CEM
[11] = HeLa cells, Table 7, 5-arylthiomethyl-substituted 2-amino-3-carboxymethylthiophenes, read-out: IC50 (μM) HeLa
[12] = Homo sapiens, CCRF-CEM, Table 1a, read-out: IC50 μM (CEM)

| Molecule | IC50 (CEM cells; [2]) [µM] | Ratio (tumor cell selectivity) (CEM cells; Table 7) | IC50 [1, 4] [µM] | further results |
| --- | --- | --- | --- | --- |
| COC(=O)c1cc(CSc2ccc3ccccc3c2)sc1N [TJ113, Methyl 2-amino-5-((naphthalen-2-ylthio)methyl)thiophene-3-carboxylate] | 0.9 | 82 | 74 | IC50 (CEM cells; [3]): 0.9 ± 0.04 µM; IC50 [1, 5]: 74 ± 6 µM |
| COC(=O)c1cc(CSc2ccccc2OC)sc1N [Compound D6, Methyl 2-amino-5-((2-methoxyphenylthio)methyl)thiophene-3-carboxylate] | 17 | 6 | 94 | – |
| COC(=O)c1cc(CSCc2cccs2)sc1N [TJ118, Methyl 2-amino-5-((thiophen-2-ylmethylthio)methyl)thiophene-3-carboxylate] | 3.3 | 30 | 99 | IC50 (CEM cells; [3]): 3.3 ± 0.9 µM; IC50 [1, 5]: 99 ± 5 µM |
| COC(=O)c1cc(CSC2CCCC2)sc1N [TJ179, Methyl 2-amino-5-(cyclopentylthiomethyl)thiophene-3-carboxylate] | 1.8 | 44 | 80 | – |
| COC(=O)c1cc(COc2ccc(OC)cc2)sc1N [TJ25, Methyl 2-amino-5-(2-(4-methoxyphenyl)oxymethyl)thiophene-3-carboxylate] | – | – | – | IC50 (CEM cells; [6]): 43 ± 13 µM; IC50 [1, 7]: 68 ± 13 µM |
| COC(=O)c1cc(CCCCl)sc1N [TJ168D, Methyl 2-amino-5-(3-chloropropyl)thiophene-3-carboxylate] | – | – | – | IC50 (CEM cells; [8]): 26 µM; Ratio (tumor cell selectivity) (CEM cells; Table 6): 6; IC50 [1, 9]: 150 µM |
| COC(=O)c1cc(CSc2ccc(C(C)C)cc2)sc1N [TJ186, Methyl 2-amino-5-((4-isopropylphenylthio)methyl)thiophene-3-carboxylate] | 0.46 | 100 | 46 | – |
| COC(=O)c1cc(CSc2ccccc2)sc1N [TJ4, Methyl 2-amino-5-(2-(phenyl)sulfanylmethyl)thiophene-3-carboxylate] | – | 83 | – | IC50 (CEM cells; [10]): 1.3 µM; IC50 (CEM cells; [6]): 1.3 ± 0.6 µM; IC50 [1, 11]: 108 µM; IC50 [1, 7]: 108 ± 7 µM |
| CCCc1cc(C(=O)OC)c(N)s1 [TJ190, Methyl 2-amino-5-propylthiophene-3-carboxylate] | – | – | – | IC50 (CEM cells; [8]): 6.9 µM; Ratio (tumor cell selectivity) (CEM cells; Table 6): 9; IC50 [1, 9]: 61 µM |
| CNc1sc(CCc2ccc(OC)cc2)cc1C(=O)OC [TJ6A, Methyl 2-methylamino-5-(2-(4-methoxyphenyl)ethyl)thiophene-3-carboxylate] | – | – | – | IC50 (CEM cells; [12]): 23 µM |
| COc1ccc(CCc2cc(C(N)=O)c(N)s2)cc1 [TJ9, 2-Amino-5-(2-(4-methoxyphenyl)ethyl)thiophene-3-carboxamide] | – | – | – | IC50 (CEM cells; [12]): 39 µM |
| COC(=O)c1cc(CCCSc2ccc(OC)cc2)sc1N [TJ169, Methyl 2-amino-5-(3-(4-methoxyphenylthio)propyl)thiophene-3-carboxylate] | 0.97 | 61 | 59 | – |
| COC(=O)c1cc(CSc2cccc(C(=O)O)c2)sc1N [TJ53, 3-((5-amino-4-(methoxycarbonyl)thiophen-2-yl)methylthio)benzoic acid] | 124 | ≦1 | 75 | – |
| COC(=O)c1cc(CSCCc2ccccc2)sc1N [TJ187, Methyl 2-amino-5-(phenethylthiomethyl)thiophene-3-carboxylate] | 1.2 | 62 | 74 | – |
| COC(=O)c1cc(CSc2ccc(-c3ccccc3)cc2)sc1N [TJ184, Methyl 2-amino-5-((biphenyl-4-ylthio)methyl)thiophene-3-carboxylate] | 1.2 | 46 | 55 | – |
| COC(=O)c1ccccc1SCc1cc(C(=O)OC)c(N)s1 [Compound D7, Methyl 2-amino-5-((2-(methoxycarbonyl)phenylthio)methyl)thiophene-3-carboxylate] | 27 | 7 | 190 | – |
| 2-Amino-5-(2-(4-methoxyphenyl)ethyl)thiophene-3-carboxylate [TJ8] | – | – | – | IC50 (CEM cells; Table 1a, read-out: IC50 μM (CEM)): 31 µM |
| COC(=O)c1cc(CSc2ccccc2N)sc1N [TJ122, Methyl 2-amino-5-((2-aminophenylthio)methyl)thiophene-3-carboxylate] | 39 | 1 | 46 | – |
| COC(=O)c1cc(CSCc2ccco2)sc1N [TJ117, Methyl 2-amino-5-((furan-2-ylmethylthio)methyl)thiophene-3-carboxylate] | 4.9 | 21 | 102 | IC50 (CEM cells; [3]): 4.9 ± 0.1 µM; IC50 [1, 5]: 102 ± 6 µM |

| Molecule | IC50 (CEM cells; [2]) [µM] | Ratio (tumor cell selectivity) (CEM cells; Table 7) | IC50 [1, 4] [µM] | further results |
| --- | --- | --- | --- | --- |
| COC(=O)c1cc(CSc2ccc([N+](=O)[O-])cc2)sc1N [TJ126, Methyl 2-amino-5-((4-nitrophenylthio)methyl)thiophene-3-carboxylate] | 12 | 1 | 16 | – |
| COC(=O)c1cc(CSc2ccccc2C)sc1N [Compound D3, Methyl 2-amino-5-(o-tolylthiomethyl)thiophene-3-carboxylate] | 2 | 36 | 71 | – |
| COC(=O)c1cc(CSc2ccc(Cl)cc2)sc1N [Compound D4, Methyl 2-amino-5-((4-chlorophenylthio)methyl)thiophene-3-carboxylate] | 1.7 | 25 | 42 | – |
| COC(=O)c1cc(CSc2ccc(OC)cc2)sc1N [TJ22, Methyl 2-amino-5-(2-(4-methoxyphenyl)sulfanylmethyl)thiophene-3-carboxylate] | – | 93 | – | IC50 (CEM cells; [10]): 0.62 µM; IC50 (CEM cells; [6]): 0.62 ± 0.33 µM; IC50 [1, 11]: 58 µM; IC50 [1, 7]: 58 ± 1 µM |
| COC(=O)c1cc(CSc2ccc(F)cc2)sc1N [Compound D10, Methyl 2-amino-5-((4-fluorophenylthio)methyl)thiophene-3-carboxylate] | 3.1 | 33 | 102 | – |
| COC(=O)c1cc(CSc2ccccc2)sc1N1C(=O)c2ccccc2C1=O [TJ86, Methyl 2-phthalimido-5-(2-(phenyl)sulfanylmethyl)thiophene-3-carboxylate] | – | – | – | IC50 (CEM cells; [6]): 13 ± 7 µM; IC50 [1, 7]: 184 ± 6 µM |
| COC(=O)c1cc(CSC2CCCCC2)sc1N [Compound D8, Methyl 2-amino-5-(cyclohexylthiomethyl)thiophene-3-carboxylate] | 2.1 | 39 | 81 | – |
| COC(=O)c1cc(CSc2ccc(OC)cc2)sc1N [TJ130, Methyl 2-amino-5-((4-methoxyphenylthio)methyl)thiophene-3-carboxylate] | 3.9 | 23 | 88 | IC50 (CEM cells; [3]): 3.9 ± 1.4 µM; IC50 [1, 5]: 88 ± 10 µM |
| COC(=O)c1cc(CSc2ccc(C)cc2)sc1N [TJ55, Methyl 2-amino-5-((4-methylphenylthio)methyl)thiophene-3-carboxylate] | 1.5 | 48 | 72 | IC50 (CEM cells; [3]): 1.5 ± 0.3 µM; IC50 [1, 5]: 72 ± 30 µM |
| COC(=O)c1cc(CSc2cccc(C)c2)sc1N1C(=O)c2ccccc2C1=O [TJ54SM, Methyl 2-phthalimido-5-(2-(3-methylphenyl)sulfanylmethyl)thiophene-3-carboxylate] | – | – | – | IC50 (CEM cells; [6]): 6.9 ± 0.7 µM; IC50 [1, 7]: 121 ± 13 µM |
| COC(=O)c1cc(CSc2ccncc2)sc1N [TJ129, Methyl 2-amino-5-((pyridin-4-ylthio)methyl)thiophene-3-carboxylate] | 111 | 1 | 93 | – |
| COC(=O)c1cc(CSc2cccc(C)c2)sc1N [TJ54P, Methyl 2-amino-5-(2-(3-methylphenyl)sulfanylmethyl)thiophene-3-carboxylate] | – | 26 | – | IC50 (CEM cells; [10]): 4.1 µM; IC50 (CEM cells; [6]): 4.1 ± 1.7 µM; IC50 [1, 11]: 108 µM; IC50 [1, 7]: 108 µM |
| COC(=O)c1cc(CNc2ccc(OC)cc2)sc1N [TJ51, Methyl 2-amino-5-(2-(4-methoxyphenyl)aminomethyl)thiophene-3-carboxylate] | – | – | – | IC50 (CEM cells; [6]): 96 ± 16 µM; IC50 [1, 7]: 78 ± 15 µM |
| CNC(=O)c1cc(CCc2ccc(OC)cc2)sc1N [TJ19, N-Methyl 2-amino-5-(2-(4-methoxyphenyl)ethyl)thiophene-3-carboxamide] | – | – | – | IC50 (CEM cells; [12]): 31 µM |
| COC(=O)c1cc(CCCSC2CCCCC2)sc1N [TJ170, Methyl 2-amino-5-(3-(cyclohexylthio)propyl)thiophene-3-carboxylate] | 0.57 | 96 | 55 | – |
| COC(=O)c1csc(CCc2ccc(OC)cc2)c1 [TJ7, Methyl 5-(2-(4-methoxyphenyl)ethyl)thiophene-3-carboxylate] | – | – | – | IC50 (CEM cells; [12]): 87 µM |
| COC(=O)c1cc(CCc2ccc(OC)cc2)sc1N(C)C [TJ6B, Methyl 2-dimethylamino-5-(2-(4-methoxyphenyl)ethyl)thiophene-3-carboxylate] | – | – | – | IC50 (CEM cells; [12]): 18 µM |
| COC(=O)c1cc(Cc2ccccc2)sc1N [TJ109, Methyl 2-amino-5-benzylthiophene-3-carboxylate] | – | – | – | IC50 (CEM cells; [12]): 8.4 µM |
